The assay deals with T1, Met kinase (Homo sapiens, UniProt P08581).
T1 construct: 6His (N); purchased Upstate 14-526; host or cells: Sf21 insect cells (S. frugiperda), baculovirus
T1 sequence (P08581 25-1390): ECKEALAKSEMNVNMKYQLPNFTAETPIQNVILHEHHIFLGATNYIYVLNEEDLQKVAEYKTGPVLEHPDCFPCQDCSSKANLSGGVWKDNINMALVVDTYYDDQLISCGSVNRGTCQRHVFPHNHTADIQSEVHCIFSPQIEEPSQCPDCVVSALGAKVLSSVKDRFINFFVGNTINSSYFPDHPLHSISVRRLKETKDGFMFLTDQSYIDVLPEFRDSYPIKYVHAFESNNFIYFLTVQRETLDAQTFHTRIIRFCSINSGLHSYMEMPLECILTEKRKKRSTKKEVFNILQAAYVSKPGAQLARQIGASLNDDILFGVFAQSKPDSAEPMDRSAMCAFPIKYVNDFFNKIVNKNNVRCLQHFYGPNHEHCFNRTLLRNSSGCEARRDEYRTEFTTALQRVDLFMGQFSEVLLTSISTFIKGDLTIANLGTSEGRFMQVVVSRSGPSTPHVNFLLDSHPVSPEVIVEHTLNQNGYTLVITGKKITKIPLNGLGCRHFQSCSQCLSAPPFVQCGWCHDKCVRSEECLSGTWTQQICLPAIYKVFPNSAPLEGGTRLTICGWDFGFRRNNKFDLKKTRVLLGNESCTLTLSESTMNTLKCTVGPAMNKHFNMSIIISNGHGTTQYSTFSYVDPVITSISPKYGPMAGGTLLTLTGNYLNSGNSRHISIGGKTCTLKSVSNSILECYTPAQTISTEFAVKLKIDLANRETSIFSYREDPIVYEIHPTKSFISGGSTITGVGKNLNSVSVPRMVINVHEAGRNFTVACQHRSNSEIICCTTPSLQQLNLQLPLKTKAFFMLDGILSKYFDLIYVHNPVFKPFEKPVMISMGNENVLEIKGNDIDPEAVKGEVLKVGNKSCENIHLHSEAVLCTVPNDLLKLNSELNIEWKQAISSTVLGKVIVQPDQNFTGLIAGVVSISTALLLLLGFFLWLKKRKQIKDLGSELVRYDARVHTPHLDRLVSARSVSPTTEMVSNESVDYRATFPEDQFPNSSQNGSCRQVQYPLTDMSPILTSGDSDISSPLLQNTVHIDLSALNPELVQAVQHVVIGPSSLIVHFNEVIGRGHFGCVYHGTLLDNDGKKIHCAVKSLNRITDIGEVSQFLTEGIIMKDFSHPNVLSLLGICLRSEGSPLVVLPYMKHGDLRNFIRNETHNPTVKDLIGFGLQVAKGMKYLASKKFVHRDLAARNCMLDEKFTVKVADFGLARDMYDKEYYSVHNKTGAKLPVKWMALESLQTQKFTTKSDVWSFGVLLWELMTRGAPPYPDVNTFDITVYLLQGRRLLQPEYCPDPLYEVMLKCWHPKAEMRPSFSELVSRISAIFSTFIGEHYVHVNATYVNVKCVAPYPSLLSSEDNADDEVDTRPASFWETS
The experiment in a line: Met kinase inhibition (enzyme assay), flashplate method. It is filed as biochemical. The note with it: 33P-ATP, substrate pAGLT, 3 hrs at room temperature. From the text:
According to the manufacturer's data (Met, active, upstate, catalogue No. 14-526), Met kinase is expressed for the purposes of protein production in insect cells (Sf21; S. frugiperda) and subsequent affinity-chromatographic purification as “N-terminal 6His-tagged” recombinant human protein in a baculovirus expression vector.
Flashplate Method (Met Kinase)
The test plates used are 96-well Flashplate^R microtitre plates from Perkin Elmer (Cat. No. SMP200). The components of the kinase reaction described below are pipetted into the assay plate. The Met kinase and the substrate poly Ala-Glu-Lys-Tyr, (pAGLT, 6:2:5:1), are incubated for 3 hrs at room temperature with radioactively labelled ^33P-ATP in the presence and absence of test substances in a total volume of 100 μl. The reaction is terminated using 150 μl of a 60 mM EDTA solution. After incubation for a further 30 min at room temperature, the supernatants are filtered off with suction, and the wells are washed three times with 200 μl of 0.9% NaCl solution each time. The measurement of the bound radioactivity is carried out by means of a scintillation measuring instrument (Topcount NXT, Perkin-Elmer).
The full value used is the inhibitor-free kinase reaction. This should be approximately in the range 6000-9000 cpm. The pharmacological zero value used is staurosporin in a final concentration of 0.1 mM. The inhibitory values (IC50) are determined using the RS1_MTS program.
Kinase reaction conditions per well: • 30 μl of assay buffer • 10 μl of substance to be tested in assay buffer with 10% of DMSO • 10 μl of ATP (final concentration 1 μM cold, 0.35 μCi of ^33P-ATP) • 50 μl of Met kinase/substrate mixture in assay buffer; • (10 ng of enzyme/well, 50 ng of pAGLT/well)
Solutions used: • Assay buffer: • 50 mM HEPES • 3 mM magnesium chloride • 3 μM sodium orthovanadate • 3 mM manganese(II) chloride • 1 mM dithiothreitol (DTT) • pH=7.5 (to be set using sodium hydroxide) • Stop solution: • 60 mM Titriplex III (EDTA) • ^33P-ATP: Perkin-Elmer; • Met kinase: Upstate, Cat. No. 14-526, Stock 1 μg/10 μl; spec. activity 954 U/mg; • Poly-Ala-Glu-Lys-Tyr, 6:2:5:1: Sigma Cat. No. P1152 In-vivo Tests (FIG. 1/1)
In turn, `CN(C)/C=N/c1cnc(-c2cccc(CN3N=C(c4nccs4)CSC3=O)c2)nc1` [Compound A2, N,N-Dimethyl-N′-{2-[3-(2-oxo-5-thiazol-2-yl-6H-1,3,4-thiadiazin-3-ylmethyl)phenyl]pyrimidin-5-yl}formamidine] came in with an IC50 of 10 to 1000 nM.

`COc1ccc(C2=NN(Cc3cccc(-c4ncc(N)cn4)c3)C(=O)SC2)cc1OC` [Compound A5, 3-[3-(5-Aminopyrimidin-2-yl)benzyl]-5-(3,4-dimethoxyphenyl)-3,6-dihydro-1,3,4-thiadiazin-2-one] returned an IC50 of 10 to 1000 nM. With `Nc1cnc(-c2cccc(CN3N=C(c4nccs4)CSC3=O)c2)nc1` [Compound A10, 3-[3-(5-Aminopyrimidin-2-yl)benzyl]-5-thiazol-2-yl-3,6-dihydro-1,3,4-thiadiazin-2-one] the figure was 10 to 1000 nM. As for `Cc1cnc(-c2cccc(CN3N=C(c4nccs4)CSC3=O)c2)nc1` [Compound A1, 3-[3-(5-methylpyrimidin-2-yl)benzyl]-5-thiazol-2-yl-3,6-dihydro-1,3,4-thiadiazin-2-one], the IC50 lay within 10 to 1000 nM. Under `CN(C)CCCOc1cnc(-c2cccc(CN3N=C(c4ccc(C#N)cc4)CSC3=O)c2)nc1` [Compound A9, 4-(3-{3-[5-(3-Dimethylaminopropoxy)pyrimidin-2-yl]-benzyl}-2-oxo-3,6-dihydro-2H-1,3,4-thiadiazin-5-yl)-benzonitrile] stands 10 to 1000 nM. `Cc1nc(-c2cccc(CN3N=C(c4nccs4)CSC3=O)c2)no1` [Compound A3, 3-[3-(5-Methyl-1,2,4-oxadiazol-3-yl)benzyl]-5-thiazol-2-yl-3,6-dihydro-1,3,4-thiadiazin-2-one] yielded an IC50 of 1000 to 10000 nM. As to `Nc1cnc(-c2cccc(CN3N=C(c4cc(F)cc(F)c4)CSC3=O)c2)nc1` [Compound A4, 3-[3-(5-aminopyrimidin-2-yl)benzyl]-5-(3,5-difluorophenyl)-3,6-dihydro-1,3,4-thiadiazin-2-one], the IC50 was in the range of 10 to 1000 nM. Under `CN(C)CCCOc1cnc(-c2cccc(CN3N=C(c4cc(F)cc(F)c4)CSC3=O)c2)nc1` [Compound A8, 5-(3,5-Difluorophenyl)-3-{3-[5-(3-dimethylamino-propoxy)pyrimidin-2-yl]benzyl}-3,6-dihydro-1,3,4-thiadiazin-2-one] stands 10 to 1000 nM. Under `N#Cc1ccc(C2=NN(Cc3cccc(-c4ncc(N)cn4)c3)C(=O)SC2)cc1` [Compound A6, 4-{3-[3-(5-Aminopyrimidin-2-yl)benzyl]-2-oxo-3,6-dihydro-2H-1,3,4-thiadiazin-5-yl}benzonitrile] stands 10 to 1000 nM. Under `CN(C)CCCOc1cnc(-c2cccc(CN3N=C(c4nccs4)CSC3=O)c2)nc1` [Compound A7, 3-{3-[5-(3-Dimethylaminopropoxy)pyrimidin-2-yl]benzyl}-5-thiazol-2-yl-3,6-dihydro-1,3,4-thiadiazin-2-one] stands 10 to 1000 nM.

These data come from patent US8211886B2, “Thiadiazinone derivatives” (Merck Patent Gesellschaft mit beschrankter Haftung, priority 2007, dated 2012).
